Data as given in ChEMBL document CHEMBL1671837, “[I]-Celecoxib Analogues as SPECT Tracers of Cyclooxygenase-2 in Inflammation” (ACS Med Chem Lett, 2011).
Activity calls are given as the source filed them. The rule behind the calls is not given here.

Legend:
[1] = biological target: T1, Prostaglandin G/H synthase 1 (Ovis aries, UniProt P05979); assay: Inhibition of ovine purified COX1 after 20 mins
T1 sequence (P05979 whole entry): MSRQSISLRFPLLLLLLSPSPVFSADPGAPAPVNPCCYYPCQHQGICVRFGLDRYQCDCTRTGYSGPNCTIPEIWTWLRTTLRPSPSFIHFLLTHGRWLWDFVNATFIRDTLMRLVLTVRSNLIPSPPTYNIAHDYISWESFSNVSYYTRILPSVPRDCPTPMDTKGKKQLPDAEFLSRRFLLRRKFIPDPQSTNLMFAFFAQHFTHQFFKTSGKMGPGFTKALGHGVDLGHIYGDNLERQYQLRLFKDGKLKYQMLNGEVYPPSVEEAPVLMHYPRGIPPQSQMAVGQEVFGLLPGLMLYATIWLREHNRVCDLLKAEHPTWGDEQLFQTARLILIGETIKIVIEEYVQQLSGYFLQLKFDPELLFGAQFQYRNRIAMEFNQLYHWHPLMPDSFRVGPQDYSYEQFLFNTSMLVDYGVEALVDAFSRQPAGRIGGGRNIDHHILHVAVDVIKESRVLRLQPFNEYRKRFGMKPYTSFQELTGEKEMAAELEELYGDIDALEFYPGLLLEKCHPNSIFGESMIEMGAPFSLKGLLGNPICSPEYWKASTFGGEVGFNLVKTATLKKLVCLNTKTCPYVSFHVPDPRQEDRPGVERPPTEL

[2] = biological target: T2, Prostaglandin G/H synthase 2 (Mus musculus, UniProt Q05769); assay: Inhibition of COX2 in mouse LPS-stimulated RAW264.7 cells after 30 mins; format: cell-based
T2 sequence (Q05769 whole entry): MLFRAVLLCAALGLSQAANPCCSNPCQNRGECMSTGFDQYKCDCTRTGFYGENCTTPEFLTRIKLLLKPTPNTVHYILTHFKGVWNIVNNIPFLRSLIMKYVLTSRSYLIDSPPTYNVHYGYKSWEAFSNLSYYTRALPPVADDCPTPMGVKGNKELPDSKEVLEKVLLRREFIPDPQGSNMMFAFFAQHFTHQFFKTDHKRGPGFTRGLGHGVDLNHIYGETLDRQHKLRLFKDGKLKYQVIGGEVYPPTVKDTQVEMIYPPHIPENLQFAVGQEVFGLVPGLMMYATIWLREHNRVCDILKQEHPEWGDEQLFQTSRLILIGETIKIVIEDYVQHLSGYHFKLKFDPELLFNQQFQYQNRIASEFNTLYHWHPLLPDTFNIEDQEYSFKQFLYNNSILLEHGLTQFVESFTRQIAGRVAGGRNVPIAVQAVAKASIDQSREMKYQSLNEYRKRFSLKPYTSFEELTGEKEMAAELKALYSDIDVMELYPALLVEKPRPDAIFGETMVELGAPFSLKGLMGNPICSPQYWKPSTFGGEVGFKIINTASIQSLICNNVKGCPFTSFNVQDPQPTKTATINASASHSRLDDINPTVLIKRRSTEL

[3] = biological target: T3, Prostaglandin G/H synthase 1 (Mus musculus) (UniProt P22437); assay: Inhibition of COX1 in mouse LPS-stimulated RAW264.7 cells at up to 5 uM after 30 mins; format: cell-based
T3 sequence (whole entry): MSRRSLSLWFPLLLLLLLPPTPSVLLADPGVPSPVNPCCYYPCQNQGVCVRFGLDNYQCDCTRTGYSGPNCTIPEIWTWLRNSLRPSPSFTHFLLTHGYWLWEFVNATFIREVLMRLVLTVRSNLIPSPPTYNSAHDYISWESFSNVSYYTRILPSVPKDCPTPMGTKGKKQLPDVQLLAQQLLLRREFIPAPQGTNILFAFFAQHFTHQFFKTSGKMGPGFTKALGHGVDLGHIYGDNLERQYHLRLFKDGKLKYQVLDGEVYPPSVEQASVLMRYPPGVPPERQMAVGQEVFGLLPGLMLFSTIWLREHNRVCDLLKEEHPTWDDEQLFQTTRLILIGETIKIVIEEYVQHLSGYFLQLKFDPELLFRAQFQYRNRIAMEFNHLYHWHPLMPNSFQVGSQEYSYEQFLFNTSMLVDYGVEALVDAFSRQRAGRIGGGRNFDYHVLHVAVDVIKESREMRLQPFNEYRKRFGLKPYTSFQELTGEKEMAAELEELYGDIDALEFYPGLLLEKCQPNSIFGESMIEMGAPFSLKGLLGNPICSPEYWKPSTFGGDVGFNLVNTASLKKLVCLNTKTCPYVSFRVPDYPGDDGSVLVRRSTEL

Compound | IC50 [1] | IC50 [2] | inhibition [3]
CCOC(=O)c1cc(-c2ccc(I)cc2)n(-c2ccc(S(N)(=O)=O)cc2)n1 | > 4 µM | 2.7 µM | –
NS(=O)(=O)c1ccc(-n2nc(CCC(=O)O)cc2-c2ccc(I)cc2)cc1 | > 4 µM | – | –
COC(=O)c1cc(-c2ccc(I)cc2)n(-c2ccc(S(N)(=O)=O)cc2)n1 | > 4 µM | – | –
COC(=O)c1cc(-c2cccc(I)c2)n(-c2ccc(S(N)(=O)=O)cc2)n1 | > 4 µM | – | –
CS(=O)(=O)c1ccc(-n2nc(C(F)(F)F)cc2-c2cccc(I)c2)cc1 | > 4 µM | – | –
NS(=O)(=O)c1ccc(-n2nc(CCC(=O)O)cc2-c2cccc(I)c2)cc1 | > 4 µM | – | –
COC(=O)c1cc(-c2ccc(I)cc2)n(-c2ccc(S(C)(=O)=O)cc2)n1 | > 4 µM | – | –
CS(=O)(=O)c1ccc(-n2nc(C(F)(F)F)cc2-c2ccc(I)cc2)cc1 | > 4 µM | 0.03 µM | inactive
COC(=O)c1cc(-c2cccc(I)c2)n(-c2ccc(S(C)(=O)=O)cc2)n1 | > 4 µM | – | –
